Source: patent US20110100079A1, “METHOD FOR IMPARTING STRESS TOLERANCE TO PLANT” (priority 2007, published 2011)

Key:
Type in all cases: in vivo
“Momotaro” tomato [1] = experiment: Example 1 salt stress tolerance imparting test (tomato, hydroponic, Otsuka 1/2A + NaCl); settings: NaCl 3510 ppm, leaf, 2 weeks
Description: (1) Salt stress-free test conditions: NaCl concentration (water potential by Nan): 0 ppm (0 MPa). Other cultivation conditions were as the same as the conditions of the drying stress test.
When the leaves in the 2-leaf stage fully unfolded, the soil on the tomato roots was carefully washed away with running water, and a test was performed.
Method of Salt Stress Tolerance Imparting Test
The environmental conditions in a climatic chamber were controlled so as to have a temperature of 23° C., an illuminance by a fluorescent light of 5000 Lux, and a daily light-dark cycle of a 16-hour light period and an 8-hour dark period. […] A treatment solution containing a compound of Table 1 in a specific concentration (the remainder was water) was prepared and sprayed onto the leaves or applied to the underground portion. In addition, a control plot to which no NaCl was added, not imposing a salt stress (this is a control plot for plant body weight 2 for Formula (ii) and is a stress-free control plot) and a control plot to which NaCl was added in various concentrations, imposing a salt stress, and to which the treatment solution was not applied (this is a control plot for plant body weight 1 for Formula (ii) and is a control plot including a salt stress) were prepared as controls. Ten specimens were prepared for each of the test plot and the control plots, and a plant stress level and an extent of imparting plant stress tolerance were calculated according to Formulas (II) above using as a fresh plant body weight the average of the fresh plant body weights of each specimen 2 weeks after the beginning of the test.

“Momotaro” tomato [2] = experiment: Example 4 salt stress tolerance imparting test (tomato, tap water + NaCl); settings: tap water + NaCl 3510 ppm, leaf, 2 weeks
Text: NaCl concentration 3510 ppm (water potential by NaCl: […]) (4) Cultivation period: two weeks (5) Plant preparation: A 50-cell tray was filled with Kureha gardening soil manufactured by Kureha Corporation (fertilizer components: N:P:K=0.4:1.9:0.6 g/kg soil), and seeds of a “Momotaro” tomato were sowed, thinly covered with Kureha gardening soil, and sufficiently irrigated to allow the seeds to sprout. When the leaves in the 2-leaf stage fully unfolded, the soil on the tomato roots was carefully washed away with running water, and a test was performed. (6) The chemicals used and the concentration of a treatment solution were as in Example 1 (7) Amount of application: 10 ml/specimen for leaf spraying, 50 ml/specimen for fertigation Method of Salt Stress Tolerance Imparting Test […]

“Momotaro” tomato [3] = experiment: Standard test: standard extent of imparting plant salt stress tolerance; settings: 100 ppm sprayed onto leaves 10 ml/specimen, NaCl 3510 ppm in tap water, fresh weight after 2 weeks vs salt-stressed untreated control plot 1
Description: Standard Test (I) Plant Preparation A 50-cell tray is filled with potting soil (fertilizer components: N:P:K=0.4:1.9:0.6 (g)/kg potting soil); and seeds of a “Momotaro” tomato (Takii Co., Ltd.) are sowed, thinly covered with potting soil, and sufficiently irrigated to allow the seeds to sprout. When the leaves in the 2-leaf stage are fully unfolded, the soil on the tomato roots is washed away with running water, and a test is performed. For the potting soil, Kureha gardening soil manufactured by Kureha Corporation may be used. (II) Test Condition Setting The environmental conditions are controlled such that the temperature is 23° C., the relative humidity is 50%, the illuminance is 5000 Lux, and the daily light-dark cycle includes a 16-hour light period and an 8-hour dark period. Such environmental conditions can be obtained by, for example, controlling the temperature in a room or a climate chamber where the temperature and the relative humidity can be controlled, and controlling illuminance by a fluorescent light or the like. […] (III) Treatment with Plant Stress Tolerance Imparting Composition […] A known surfactant or a like material that barely affects the plant may be used in the preparation of an aqueous dispersion. Test plot: An aqueous solution or an aqueous dispersion of a test compound (sugar derivative-type surfactant) (concentration: 100 ppm) is sprayed onto the leaves in an amount of 10 ml per tomato specimen. […] NaCl is added to a solution culture medium (creating a salt stress), but no test compound (plant stress tolerance imparting composition) is given to the tomato. Control plot 2: No NaCl is added to a solution culture medium (creating no salt stress), and no test compound (plant stress tolerance imparting composition) is given to the tomato. (IV) Calculation of Standard Extent of Imparting Plant Salt Stress Tolerance (%) […] The plant stress level (standard plant salt stress level) attained in the above-described standard test is about 130%. In this regard, the standard plant salt stress level can be calculated according to Formula (ii)′ below.

[4] = tested on: Potato Variety: Toyoshiro; experiment: Example 5 drying stress tolerance imparting test (potato variety Toyoshiro); settings: pF 2.3, leaf, 3 weeks
Description: Other cultivation conditions were the same as the conditions of the drying stress test. Drying stress conditions: soil pF value: 2.3, 2.5, or 2.9, cultivation temperature: 23° C., relative humidity: 50%, illuminance: 5000 Lux (fluorescent light), light/dark cycle: 16 hours/8 hours (2) Cultivation Period: 3 weeks (3) Soil: Kureha gardening soil manufactured by Kureha Corporation (fertilizer components: N:P:K=0.4:1.9:0.6 g/kg soil) (4) The chemicals used and the amount of a treatment solution applied were the same as in Example 3. Method of Drying Stress Tolerance Imparting Test A planter (60 cm) was filled with Kureha gardening soil manufactured by Kureha Corporation (fertilizer components: N:P:K=0.4:1.9:0.6 g/kg soil) in a glass greenhouse, tubers of a “Thyoshiro” potato were cut in half: and 5 pieces thereof were planted in the planter, thinly covered with Kureha gardening soil, and sufficiently watered to allow the tubers to sprout. When the leaves in the 3-leaf stage fully unfolded, the Solarium tuberosu was relocated on a plant culture rack in an air-conditioned room, and a test was initiated. […] From immediately after the beginning of the test, a treatment solution of Table 1 was sprayed onto the leaves or applied to the underground portions once a week. […] Five specimens (per planter) were prepared for each of the test plot and the control plots, plant bodies were collected 3 weeks after the beginning of the test such that the roots were not cut, the soil was washed away with running water, the fresh plant body weights were measured, and a plant stress level and an extent of imparting plant stress tolerance were calculated according to Formula (ii) and (iii) above using the average of the weights.

Substance | Extent of imparting plant stress tolerance (“Momotaro” tomato [1]; 100 ppm) | Extent of imparting plant stress tolerance (“Momotaro” tomato [1]; 200 ppm) | Extent of imparting plant stress tolerance (“Momotaro” tomato [2]; 100 ppm) | Extent of imparting plant stress tolerance (“Momotaro” tomato [2]; 200 ppm) | Standard extent of imparting plant salt stress tolerance (“Momotaro” tomato [3]) | Extent of imparting plant stress tolerance ([4]; 100 ppm once a week) | Extent of imparting plant stress tolerance ([4]; 200 ppm once a week)
Alkyl (C10) polyglycoside [Product of present invention 15] | 115% | 114% | 116% | 113% | 116% | 119% | 116%
Sucrose fatty acid ester (C18:1, HLB = 15) [Product of present invention 22] | – | 112% | 118% | 111% | 118% | 119% | 114%
